From patent US20210038626A1, “COMPOSITIONS COMPRISING AND METHODS OF USING INHIBITORS OF SODIUM-GLUCOSE COTRANSPORTERS 1 AND 2” (Lexicon Pharmaceuticals, Inc., priority 2011, published 2021)

Assays:
[1] = test system: human SGLT1 / human SGLT2; conditions: ratio of human SGLT1 IC50 to human SGLT2 IC50
Protocol: HEK293 cells were transfected with the human HA-SGLT2-pIRESpuro2 vector and the bulk stable cell line was selected in presence of 0.5 μg/ml of puromycin. Human HA-SGLT2 cells were maintained in DMEM media containing 10% FBS, 1% GPS and 0.5 μg/ml of puromycin.
The HEK293 cells expressing the human HA-SGLT2 were seeded in 384 well plates (30,000 cells/well) in DMEM media containing 10% FBS, 1% GPS and 0.5 μg/ml of puromycin, then incubated overnight at 37 C, 5% CO2. Cells were then washed with uptake buffer (140 mM NaCl, 2 mM KCl, 1 mM CaCl2, 1 mM MgCl2, 10 mM HEPES, 5 mM Tris, 1 mg/ml bovine serum albumin (BSA), pH 7.3). Twenty microliters of uptake buffer with or without testing compounds were added to the cells. […] After washing the cells with uptake buffer, scintillation fluid was added (40 microliters/well) and ^14C-AMG uptake was measured by counting radioactivity using a scintillation coulter (TopCoulter NXT; Packard Instruments).
Cells were then washed with uptake buffer (140 mM NaCl, 2 mM KCl, 1 mM CaCl2, 1 mM MgCl2, 10 mM HEPES, 5 mM Tris, 1 mg/ml bovine serum albumin (BSA), pH 7.3). […] After washing the cells with uptake buffer, scintillation fluid was added (40 microliters/well) and ^14C-AMG uptake was measured by counting radioactivity using a scintillation coulter (TopCoulter NXT; Packard Instruments).

[2] = test system: patients with type 2 diabetes mellitus; experiment: Phase 2a clinical trial, liquid oral dosage form once daily for 28 days; format: in vivo, human
Protocol: Certain aspects of this invention may be understood with reference to the figures. FIGS. 1-10 show results obtained from a randomized, double-blind, placebo controlled Phase 2a clinical trial, wherein 150 mg and 300 mg doses of (2S,3R,4R,5S,6R)-2-(4-chloro-3-(4-ethoxybenzyl)phenyl)-6-(methylthio)tetrahydro-2H-pyran-3,4,5-triol were orally administered in solution once daily to patients with type 2 diabetes mellitus. FIG. 11 provides results obtained from a Phase 1 clinical trial, wherein both solid and liquid oral dosage forms of the compound were administered to patients with type 2 diabetes mellitus.
This invention is based, in part, on findings obtained from a randomized, double-blind, placebo controlled Phase 2a clinical trial, wherein 150 mg/day and 300 mg/day doses of a compound of the invention were orally administered in a liquid to patients with type 2 diabetes mellitus. The compound was (2S,3R,4R,5S,6R)-2-(4-chloro-3-(4-ethoxybenzyl)phenyl)-6-(methylthio)tetrahydro-2H-pyran-3,4,5-triol, which has the structure:
Patients (n=36) with type 2 diabetes mellitus received one of two oral doses of (2S,3R,4R,5S,6R)-2-(4-chloro-3-(4-ethoxybenzyl)phenyl)-6-(methylthio)tetrahydro-2H-pyran-3,4,5-triol, given as 150 mg or 300 mg once daily, or matching placebo, for 28 days in solution.
In this study, patients on metformin were taken off of the drug 16 days prior to day 0, the day dosing first began.

[3] = test system: patients with type 2 diabetes mellitus; experiment: Phase 1 clinical trial comparing solid and liquid oral dosage forms, single 300 mg dose, crossover; format: in vivo, human; conditions: single doses
Protocol: This invention is further based on findings obtained from a randomized, double-blind, placebo controlled Phase 1 clinical trial that compared liquid and solid dosage forms of the compound.
Patients (n=12) with type 2 diabetes mellitus received one of three oral formulations of 300 mg of (2S,3R,4R,5S,6R)-2-(4-chloro-3-(4-ethoxybenzyl)phenyl)-6-(methylthio)tetrahydro-2H-pyran-3,4,5-triol before breakfast: as two 150 mg tablets, six 50 mg tablets, or 30 mL of 10 mg/mL solution in a randomized sequence implementing a Latin Square crossover design, with a 5-day washout between doses.
Changes in urinary glucose excretion, fasting plasma glucose (FPG), insulin, postprandial glucose (PPG), peptide YY (PYY), and glucagon-like peptide-1(GLP-1) were measured at days −1, 1, 6, and 11.

[4] = 150 mg and 300 mg once daily, 28 days

CCOc1ccc(Cc2cc([C@@H]3O[C@H](SC)[C@@H](O)[C@H](O)[C@H]3O)ccc2Cl)cc1 [(2S,3R,4R,5S,6R)-2-(4-chloro-3-(4-ethoxybenzyl)phenyl)-6-(methylthio)tetrahydro-2H-pyran-3,4,5-triol]
SGLT1 IC50: SGLT2 IC50 ratio [1]: about 20
glucosuria compared to placebo ([2]; 150 mg and 300 mg once daily, 28-day dosing period, preliminary data): significant and sustained glucosuria
adverse events [2, 4]: generally mild and evenly distributed across all dose groups, including placebo
dose-limiting toxicities [2, 4]: no evidence of dose-limiting toxicities
glucose tolerance (FIG. 2) ([2]; 150 mg/day and 300 mg/day treatment groups vs placebo): greater glucose tolerance than those in the placebo group
plasma glucose levels (FIG. 1) ([2]; 150 mg/day and 300 mg/day treatment groups, upon treatment): rapid, statistically significant decrease
post-prandial glucose levels (FIG. 5) ([2]; 150 mg/day and 300 mg/day vs placebo): rapid, statistically significant decrease
insulin sensitivity, homeostatic model assessment (HOMA) (FIG. 4) ([2]; 150 mg/day and 300 mg/day vs placebo, day 27): improved insulin sensitivity compared to placebo
mean diastolic and systolic blood pressures (FIGS. 8 and 9) ([2]; 150 mg/day and 300 mg/day, after 28 days of dosing, vs placebo): decreased mean diastolic and systolic blood pressures
mean arterial pressures (FIG. 10) ([2]; 150 mg/day and 300 mg/day, day 28 vs baseline): also decreased
mean HbA1c levels (FIG. 7) ([2]; 150 mg/day and 300 mg/day, four weeks): marked decrease
FPG and PPG levels [3]: markedly improved
GLP-1 and PYY levels [3]: increased
